Molecular target: T1, ZAP-70 (Homo sapiens, UniProt P43403)
T1 sequence (P43403 1-619): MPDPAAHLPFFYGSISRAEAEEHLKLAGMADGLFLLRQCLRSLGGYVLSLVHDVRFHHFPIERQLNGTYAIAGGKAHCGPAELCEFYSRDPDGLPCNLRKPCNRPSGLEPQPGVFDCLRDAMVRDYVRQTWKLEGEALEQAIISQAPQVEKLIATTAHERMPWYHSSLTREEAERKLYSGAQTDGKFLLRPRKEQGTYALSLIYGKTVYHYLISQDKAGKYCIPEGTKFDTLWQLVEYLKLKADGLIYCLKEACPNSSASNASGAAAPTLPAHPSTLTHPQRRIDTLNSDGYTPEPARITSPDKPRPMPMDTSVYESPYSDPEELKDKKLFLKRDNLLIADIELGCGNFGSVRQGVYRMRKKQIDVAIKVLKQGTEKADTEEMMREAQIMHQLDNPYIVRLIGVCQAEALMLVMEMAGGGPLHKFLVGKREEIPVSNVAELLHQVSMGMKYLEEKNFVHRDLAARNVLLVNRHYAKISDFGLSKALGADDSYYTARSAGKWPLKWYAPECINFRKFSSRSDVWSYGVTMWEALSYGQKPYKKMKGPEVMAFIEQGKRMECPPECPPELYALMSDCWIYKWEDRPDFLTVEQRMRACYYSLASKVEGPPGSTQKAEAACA
Test: DELFIA assay (ZAP-70 kinase, phosphorylation of biotinylated poly(glu,tyr))
Type: biochemical
Conditions: ZAP-70 DELFIA, class symbols; read-out: Activity (IC50 in vitro)
Protocol: Before initiation of kinase reactions, compounds were pre-incubated with ZAP-70. Pre-incubation reactions contained 62.5 mM Mops pH 7.0, 12.5 mM MgCl2, 12.5% glycerol, 3.1 nM ZAP-70, 62.5 nM biotinylated poly(glu,Tyr), 0.1 mg/ml BSA, 6.25% DMSO and […] compound in a total volume of […]. After a 10 minute room temperature incubation, 10 ml of 5 mM ATP was added to start the reaction. Reactions were incubated at room temperature for 30 minutes then terminated by addition of 5 ml 500 mM EDTA. The amount of phosphate transferred to biotinylated poly(glu,tyr) was measured using the Dissociation Enhanced Lanthanide Fluorescence Immuno-assay (DELFIA) from Perkin Elmer according to manufacturers protocol. Briefly, biotinylated […] was captured on streptavidin coated plates, washed twice, then incubated with Europium labeled-anti-phosphotyrosine antibody. Free antibody was removed with six washes, Europium was dissociated from the antibody, and Europium fluorescence was measured at using an excitation wavelength of 340 nm and an emission wavelength of 615 nm.

Row | SMILES | IC50 [µM]
1 | CN(C)CCN(C)c1cc(C(=O)N2CCC[C@H]2CN2CCCC2)c2cc(-c3ccc4c(c3)OCO4)ccc2n1 [Compound 67] | > 10
2 | CC(=O)N[C@H]1CCN(c2cc(C(=O)N3CCC[C@H]3CN3CCCC3)c3cc(-c4ccc5c(c4)OCO5)ccc3n2)C1 [Compound 69] | > 10
3 | CC(=O)NCCNc1cc(C(=O)N2CCC[C@H]2CN2CCCC2)c2cc(-c3ccc4c(c3)OCO4)ccc2n1 [Compound 71] | > 10
4 | O=C(c1cc(NCc2ccccc2)nc2ccc(-c3ccc4c(c3)OCO4)cc12)N1CCC[C@H]1CO [Compound 80] | > 10
5 | CC(C)N(C)C[C@@H]1CCCN1C(=O)c1cc(NCc2ccccc2)nc2ccc(-c3ccc4c(c3)OCO4)cc12 [Compound 84] | > 10
6 | O=C(Nc1ccc2[nH]ncc2c1)c1cc(NCc2ccccc2)nc2ccc(-c3ccc4c(c3)OCO4)cc12 [Compound 86] | 1 to 10
7 | O=C(Nc1ccc2cn[nH]c2c1)c1cc(NCc2ccc(C(F)(F)F)cc2)nc2ccc(-c3ccc4c(c3)OCO4)cc12 [Compound 87] | > 10
8 | O=C(Nc1ccc2[nH]ncc2c1)c1cc(NCc2ccc(C(F)(F)F)cc2)nc2ccc(-c3ccc4c(c3)OCO4)cc12 [Compound 88] | > 10
9 | O=C(c1cc(N2CCC[C@H]2CN2CCCC2)nc2ccc(-c3ccc4c(c3)OCO4)cc12)N1CCC[C@H]1CN1CCCC1 [Compound 89] | 1 to 10
10 | O=C(c1cc(N2CCC(O)CC2)nc2ccc(-c3ccc4c(c3)OCO4)cc12)N1CCC[C@H]1CN1CCCC1 [Compound 90] | 1 to 10
11 | Clc1cc(CN2CCC[C@H]2CN2CCCC2)c2cc(-c3ccc4c(c3)OCO4)ccc2n1 [Compound 93] | > 10
12 | FC(F)(F)c1ccc(CNc2cc(CN3CCC[C@H]3CN3CCCC3)c3cc(-c4ccc5c(c4)OCO5)ccc3n2)cc1 [Compound 94] | 1 to 10
13 | O=C(c1cc(-c2ccc(F)c(Cl)c2)nc2ccc(-c3ccc(F)c(Cl)c3)cc12)N1CCC[C@H]1CN1CCCC1 [Compound 95] | 1 to 10
14 | N#Cc1cccc(-c2ccc3nc(-c4cccc(C#N)c4)cc(C(=O)N4CCC[C@H]4CN4CCCC4)c3c2)c1 [Compound 96] | 1 to 10
15 | O=C(c1cc(-c2ccc(Cl)c(Cl)c2)nc2ccc(-c3ccc(Cl)c(Cl)c3)cc12)N1CCC[C@H]1CN1CCCC1 [Compound 97] | 1 to 10
16 | Clc1cc(N2CCC[C@H]2CN2CCCC2)c2cc(-c3ccc4c(c3)OCO4)ccc2n1 [Compound 100] | > 10
17 | Clc1cc(N2CCC[C@H]2CN2CCCC2)nc2ccc(-c3ccc4c(c3)OCO4)cc12 [Compound 101] | 1 to 10
18 | O=C(Nc1cc(C(=O)N2CCC[C@H]2CN2CCCC2)c2cc(-c3ccc4c(c3)OCO4)ccc2n1)c1ccc(C(F)(F)F)cc1 [Compound 102] | 1 to 10
19 | FC(F)(F)c1ccc(CNc2cc(N3CCC[C@H]3CN3CCCC3)c3cc(-c4ccc5c(c4)OCO5)ccc3n2)cc1 [Compound 103] | 1 to 10
20 | FC(F)(F)c1ccc(CNc2cc(N3CCC[C@H]3CN3CCCC3)nc3ccc(-c4ccc5c(c4)OCO5)cc23)cc1 [Compound 104] | 1 to 10
21 | O=C(c1cc(NCc2ccc(C(F)(F)F)cc2)nc2ccc(-c3cc(F)cc(F)c3)cc12)N1CCC[C@H]1CN1CCCC1 [Compound 108] | 1 to 10
22 | O=C(c1cc(NCc2ccc(C(F)(F)F)cc2)nc2ccc(-c3ccc4c(c3)OCO4)cc12)N1CCCC1CCN1CCCC1 (stereo not drawn) [Compound 109] | 1 to 10
23 | O=C(c1cc(NCc2ccc(C(F)(F)F)cc2)nc2ccc(-c3ccc4c(c3)OCO4)cc12)N1CCC(CN2CCCC2)C1 (stereo not drawn) [Compound 110] | > 10
24 | O=C(NCc1ccc(C(F)(F)F)cc1)c1cc(NCc2ccc(C(F)(F)F)cc2)nc2ccc(-c3ccc4c(c3)OCO4)cc12 [Compound 111] | > 10
25 | O=C(c1cc(Cl)ncc1Cl)N1CCC[C@H]1CN1CCCC1 [Compound 112] | > 10
26 | O=C(c1cc(Cl)nc(Cl)c1)N1CCC[C@H]1CN1CCCC1 [Compound 113] | > 10
27 | O=C(c1cc(NCc2ccc(C(F)(F)F)cc2)ncc1Cl)N1CCC[C@H]1CN1CCCC1 [Compound 114] | > 10
28 | O=C(c1cc(Cl)nc(/C=C/c2ccccc2)c1)N1CCC[C@H]1CN1CCCC1 [Compound 115] | > 10

Further lines, results first:

Row | IC50 [µM] | SMILES
29 | 1 to 10 | CN(C)c1cc(C(=O)N2CCC[C@H]2CN2CCCC2)c2cc(-c3ccc4c(c3)OCO4)ccc2n1 [Compound 59]
30 | < 1 | CN1CCC(N(C)c2cc(C(=O)N3CCC[C@H]3CN3CCCC3)c3cc(-c4ccc5c(c4)OCO5)ccc3n2)CC1 [Compound 60]
31 | 1 to 10 | CN1CCN(c2cc(C(=O)N3CCC[C@H]3CN3CCCC3)c3cc(-c4ccc5c(c4)OCO5)ccc3n2)CC1 [Compound 61]
32 | 1 to 10 | O=C(c1cc(N2CCOCC2)nc2ccc(-c3ccc4c(c3)OCO4)cc12)N1CCC[C@H]1CN1CCCC1 [Compound 62]
33 | 1 to 10 | O=C(c1cc(N2CCCC2)nc2ccc(-c3ccc4c(c3)OCO4)cc12)N1CCC[C@H]1CN1CCCC1 [Compound 63]
34 | 1 to 10 | O=C(c1cc(N2CCC(N3CCCC3)CC2)nc2ccc(-c3ccc4c(c3)OCO4)cc12)N1CCC[C@H]1CN1CCCC1 [Compound 64]
35 | < 1 | O=C(c1cc(N2CCc3ccccc3C2)nc2ccc(-c3ccc4c(c3)OCO4)cc12)N1CCC[C@H]1CN1CCCC1 [Compound 65]
36 | 1 to 10 | CN(CCC#N)c1cc(C(=O)N2CCC[C@H]2CN2CCCC2)c2cc(-c3ccc4c(c3)OCO4)ccc2n1 [Compound 66]
37 | < 1 | CCN(Cc1ccccc1)c1cc(C(=O)N2CCC[C@H]2CN2CCCC2)c2cc(-c3ccc4c(c3)OCO4)ccc2n1 [Compound 68]
38 | < 1 | CN(c1cc(C(=O)N2CCC[C@H]2CN2CCCC2)c2cc(-c3ccc4c(c3)OCO4)ccc2n1)C1CCCCC1 [Compound 70]
39 | 1 to 10 | CCN(CCOC)c1cc(C(=O)N2CCC[C@H]2CN2CCCC2)c2cc(-c3ccc4c(c3)OCO4)ccc2n1 [Compound 72]
40 | 1 to 10 | COCCN1CCN(c2cc(C(=O)N3CCC[C@H]3CN3CCCC3)c3cc(-c4ccc5c(c4)OCO5)ccc3n2)CC1 [Compound 73]
41 | 1 to 10 | CN(CCO)c1cc(C(=O)N2CCC[C@H]2CN2CCCC2)c2cc(-c3ccc4c(c3)OCO4)ccc2n1 [Compound 74]
42 | 1 to 10 | CN(C)[C@@H]1CCN(c2cc(C(=O)N3CCC[C@H]3CN3CCCC3)c3cc(-c4ccc5c(c4)OCO5)ccc3n2)C1 [Compound 75]
43 | < 1 | O=C(c1cc(N(CCO)Cc2ccccc2)nc2ccc(-c3ccc4c(c3)OCO4)cc12)N1CCC[C@H]1CN1CCCC1 [Compound 76]
44 | < 1 | CN(Cc1ccc(Cl)c(Cl)c1)c1cc(C(=O)N2CCC[C@H]2CN2CCCC2)c2cc(-c3ccc4c(c3)OCO4)ccc2n1 [Compound 77]
45 | 1 to 10 | CN(c1ccccn1)c1cc(C(=O)N2CCC[C@H]2CN2CCCC2)c2cc(-c3ccc4c(c3)OCO4)ccc2n1 [Compound 78]
46 | 1 to 10 | O=C(c1cc(N2CCN(C3CCCC3)CC2)nc2ccc(-c3ccc4c(c3)OCO4)cc12)N1CCC[C@H]1CN1CCCC1 [Compound 79]
47 | 1 to 10 | CCN(CC)C[C@@H]1CCCN1C(=O)c1cc(NCc2ccccc2)nc2ccc(-c3ccc4c(c3)OCO4)cc12 [Compound 81]
48 | 1 to 10 | O=C(c1cc(NCc2ccccc2)nc2ccc(-c3ccc4c(c3)OCO4)cc12)N1CCC[C@H]1CN1CCCCC1 [Compound 82]
49 | 1 to 10 | O=C(c1cc(NCc2ccccc2)nc2ccc(-c3ccc4c(c3)OCO4)cc12)N1CCC[C@H]1CN1CCOCC1 [Compound 83]
50 | 1 to 10 | O=C(Nc1ccc2cn[nH]c2c1)c1cc(NCc2ccccc2)nc2ccc(-c3ccc4c(c3)OCO4)cc12 [Compound 85]
51 | < 1 | O=C(c1cc(N2CCC[C@@H]2CO)nc2ccc(-c3ccc4c(c3)OCO4)cc12)N1CCC[C@H]1CN1CCCC1 [Compound 91]
52 | < 1 | O=C(c1cc(N2CCCc3ccccc32)nc2ccc(-c3ccc4c(c3)OCO4)cc12)N1CCC[C@H]1CN1CCCC1 [Compound 92]
53 | < 1 | O=C(c1cc(OCc2ccc(C(F)(F)F)cc2)nc2ccc(-c3ccc4c(c3)OCO4)cc12)N1CCC[C@H]1CN1CCCC1 [Compound 98]
54 | < 1 | O=C(c1cc(OCc2ccc(Cl)cc2)nc2ccc(-c3ccc4c(c3)OCO4)cc12)N1CCC[C@H]1CN1CCCC1 [Compound 99]
55 | < 1 | O=C(c1cc(NCc2ccc(C(F)(F)F)cc2)nc2ccc(-c3ccc(Cl)c(Cl)c3)cc12)N1CCC[C@H]1CN1CCCC1 [Compound 105]
56 | < 1 | N#Cc1cccc(-c2ccc3nc(NCc4ccc(C(F)(F)F)cc4)cc(C(=O)N4CCC[C@H]4CN4CCCC4)c3c2)c1 [Compound 106]
57 | < 1 | N#Cc1ccc(-c2ccc3nc(NCc4ccc(C(F)(F)F)cc4)cc(C(=O)N4CCC[C@H]4CN4CCCC4)c3c2)cc1 [Compound 107]
